Experimental findings from publication PMC6292506 (Nature structural & molecular biology, 2018) are described below.

The Kd is the concentration at which binding is half-saturated. A high value points to a looser complex.

Where a SMILES comes first, the peptide text is derived from it.

The target in one assay is Cdc14 (Saccharomyces cerevisiae, UniProt Q00684). Type of assay: biochemical. The following applies: for Dephosphorylation of pTP phosphopeptide by Cdc14: 1 µM Cdc14 (Supplementary Fig. 9d).
The next assay relates to Cdc14 with Net1^1-600. Type of assay: biochemical, Saccharomyces cerevisiae. The following applies: 200 nM Net1^1-600; two independent experiments (Fig. 4c).
Assay [1] concerns the target GFP-Cdc14 (Saccharomyces cerevisiae, UniProt Q00684). The assay can be described thus: biochemical. The class given is binding.
Assay [2] addresses T1, GFP-Cdc14 (S. cerevisiae, UniProt Q00684 1-551).
T1 sequence (looked up): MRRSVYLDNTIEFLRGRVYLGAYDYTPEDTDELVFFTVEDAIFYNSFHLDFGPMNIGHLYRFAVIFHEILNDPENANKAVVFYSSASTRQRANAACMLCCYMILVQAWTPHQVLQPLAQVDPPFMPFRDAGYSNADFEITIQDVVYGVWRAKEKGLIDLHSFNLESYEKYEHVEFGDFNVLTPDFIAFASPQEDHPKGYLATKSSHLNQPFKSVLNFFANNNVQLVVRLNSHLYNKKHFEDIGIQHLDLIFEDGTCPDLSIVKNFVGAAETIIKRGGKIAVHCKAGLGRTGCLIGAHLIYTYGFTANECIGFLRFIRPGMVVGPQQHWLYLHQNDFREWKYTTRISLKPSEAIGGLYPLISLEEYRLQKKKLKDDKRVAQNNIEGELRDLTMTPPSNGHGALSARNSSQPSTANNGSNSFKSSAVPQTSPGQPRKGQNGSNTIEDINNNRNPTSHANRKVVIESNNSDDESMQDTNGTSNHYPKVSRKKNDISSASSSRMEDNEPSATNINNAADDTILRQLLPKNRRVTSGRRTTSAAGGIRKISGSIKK
The assay can be described thus: MST.

A further assay addresses T2, His6-Net1^1-600 (S. cerevisiae, UniProt P47035 1-600).
T2 sequence (looked up): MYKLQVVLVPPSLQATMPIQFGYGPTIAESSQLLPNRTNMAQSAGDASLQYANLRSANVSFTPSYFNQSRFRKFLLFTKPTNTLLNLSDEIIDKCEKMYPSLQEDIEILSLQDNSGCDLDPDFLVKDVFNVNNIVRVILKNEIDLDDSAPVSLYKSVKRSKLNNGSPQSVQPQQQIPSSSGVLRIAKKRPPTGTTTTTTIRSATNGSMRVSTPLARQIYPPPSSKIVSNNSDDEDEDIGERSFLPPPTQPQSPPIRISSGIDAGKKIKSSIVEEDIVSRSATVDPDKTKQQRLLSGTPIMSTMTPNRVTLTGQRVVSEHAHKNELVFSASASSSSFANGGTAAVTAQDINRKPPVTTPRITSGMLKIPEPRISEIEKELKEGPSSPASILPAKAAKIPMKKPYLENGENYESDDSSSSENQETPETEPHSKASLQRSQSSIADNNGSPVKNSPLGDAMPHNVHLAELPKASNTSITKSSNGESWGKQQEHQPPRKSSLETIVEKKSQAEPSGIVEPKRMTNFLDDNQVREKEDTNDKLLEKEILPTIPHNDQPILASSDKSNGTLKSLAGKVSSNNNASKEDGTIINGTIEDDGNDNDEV
The assay can be described thus: pull-down.

As for “FTDVAAGNYPATPPPH-TSPLGpTPLAAFNGLTSPQRSPFPKSSVK [AxG…pTP control peptide]”, on Cdc14, the “Dephosphorylation of pTP phosphopeptide by Cdc14” value is on record as “almost undetectable”.
The same measure, in the same setting: for “FTDVPALNYPATPPPHTSPLGpTPLAAFNGLTSPQRSPFP-KSSVK [PxL…pTP peptide]” the value was “substantially enhanced”.
On to YVPAPAPTTPLNFDHP [scrambled peptide], for which the “Effect of peptide on inhibition of Cdc14 p-NPP hydrolysis by Net1” value with Cdc14 with Net1^1-600 is given as “observed to a much lesser extent”.
As for `CC(C)C[C@H](NC(=O)[C@H](CC(C)C)NC(=O)[C@@H]1CCCN1C(=O)[C@H](C)NC(=O)[C@H](CC(N)=O)NC(=O)[C@H](CCCCN)NC(=O)[C@H](Cc1ccccc1)NC(=O)[C@H](CO)NC(=O)[C@H](CCCCN)NC(=O)[C@@H](NC(=O)[C@@H](NC(=O)[C@H](CO)NC(=O)[C@@H]1CCCN1)[C@@H](C)O)[C@@H](C)O)C(=O)N[C@@H](C)C(=O)N1CCC[C@H]1C(=O)N1CCC[C@H]1C(=O)O` [Sic1 peptide] (H-PSTTKSFKNAPLLAPP-OH), on GFP-Cdc14 [1], binding was characterised by a dissociation constant (Kd) of 32.2 µM.
Regarding “FTDVPALNYPATPPPH-TSPLGpSPLAAFNGLTSPQRSPFPKSSVK [PxL…pSPxAA peptide]”, the “Behaviour at higher substrate concentrations” value at Cdc14 (pSPxAA phosphopeptide, 100 nM Cdc14, above 50 μM (Fig. 6a)) was “apparent substrate inhibition”.
In the assay with GFP-Cdc14 [2], Ac-KGKLILSSVPPLPYDE-NH2 [Kar9-derived PxL motif peptide] registered a Kd of 6 µM.

B1: GST-Cdc14 (enzyme, S. cerevisiae, UniProt Q00684 1-551, looked up)
chain: T1 sequence (looked up)
As to B1, the binding result in the assay with His6-Net1^1-600 was “binds”.
Regarding FTDVPALNYPATPPPH [Cbk1-derived PxL motif peptide (16-mer)], binding with GFP-Cdc14 [2] was characterised by a dissociation constant (Kd) of 6.1 µM.
